Test results reported in patent publication US12496298B2, “Natural killer cells” (Imperial College Innovations Limited, priority 2017, dated 2025).

Columns and labels:
[1] = test system: Human CD34+ cells; experiment: In vitro development of human NK cells (hCD56+ hCD45+) from CD34+ umbilical cord blood progenitor cells; format: cell-based
Procedure: FIG. 9: Human CD34^+ cells were cultured with the addition of 5 μM SR8278 at Day 4. At Day 14 and 16, percentage of hCD56^+ hCD45^+ (markers for human NK cells) cells was quantified using flow cytometry. (A) Graph showing percentage of hCD56^+ hCD45^+ cells compared to the ‘No drug’ control in different conditions. (B) Flow cytometry gating strategy for identification of human NK cells. (C) Representative flow cytometry results with percentage of NK cells shown. Results were averaged from one experiments with six repeats each and the error bars represent the mean+SD.
The hypothesis that SR8278 increases NK cells production would not have any potential therapeutic value if it was not also true for human NK cell production. Therefore, the effect of SR8278 on human NK cell production from human HPCs was examined. Human HPCs were obtained as the CD34^+ population purified from umbilical cord blood from collaborators at the Anthony Nolan Research Institute, London. Human NK cell development goes through a similar developmental pathway to mouse NK cell development. By contrast with mouse HPC culture, human CD34^+ cells were cultured straight onto EL08-1D2 stromal cells in the presence of IL-3, IL-7, FIt3L, SCF and IL-15 cytokines for 14 and 16 days before harvesting and analysis by flow cytometry. To try to optimise human NK cell production, 5 or 10 μM SR8278 were added on either day 2, 4 or 6 of the culture.
OP9-GFP stromal cells were cultured in Iscove's Modified Dulbecco's Media (IMDM) (Sigma Aldrich) supplemented with 20% Fetal Bovine Serum (FBS), and Penicillin/[…] (P/S). For experiments done on 96-well plates, OP9 stromal cells were plated at the concentration of 2000 cells/well and incubated at 37° C., 5% CO2 for 1 day before the addition of HPCs. For experiments done on 24-well plates, OP9 stromal cells were plated at the concentration of 4000 cells/well and were incubated at 37° C. 5% CO2 for 2 days prior to addition of HPCs. EL08.1D2 stromal cells were cultured in Minimum Essential Medium Eagle—Alpha Modification (Alpha-MEM) supplemented with 50% Myelocult M5300 (Stem Cell Technologies), 7.5% FBS, 50 μM β-Mercaptoethanol, 1 μM Hydrocortisone and 1% P/S (Sigma Aldrich). For human CD34^+ progenitor cell experiments, EL08.1D2 were irradiated at 3000 rads/30 Gy and plated in 96-well EmbryoMax Gelatin (Millipore)-coated plates at the concentration of 20,000 cells/well. There were cultured at 32° C., 5% CO2 overnight, before CD34^+ cells were transferred onto them.
(§1) CD34^+ umbilical cord blood progenitor cells were provided by Anthony Nolan Research Institute, University College London. These cells were isolated from whole cord blood and were cryopreserved in liquid nitrogen for storage and transport. Cells were thawed, counted and then plated on EL08.1D2 plates prepared previously at a concentration of 1000 cells/well in human NK cells differentiation medium (Alpha-MEM plus 20% Human AB serum (Invitrogen), 50 μM β-Mercaptoethanol and 1% P/S along with 5 ng/ml human-IL-3 (Peprotech), 20 ng/ml human-IL-7 (Peprotech), 10 ng/ml human-Flt3-L (Peprotech), 20 ng/ml human-SCF (Peprotech) and 10 ng/ml human-IL-15 (Peprotech). Note that human-IL-3 is only needed for the first week of culture. Cells were left in the culture at 37° C., 5% CO2 for 14 or 16 days with a change of human NK differentiation medium at day 7 and 12.
Cells to be analysed by flow cytometry were passed through 40 μm cell strainers to remove clumps and washed with PBS buffer, centrifuged at 800 g for 2 minutes and resuspended in 100 μl fluorescent activated cell sorting (FACS) buffer (PBS plus 1% BSA) with appropriate fluorochrome conjugated antibodies at a dilution of 1 in 300. […]

[2] = test system: Human CD34+ cells; experiment: Toxicity to human CD34+ cells in NK cell culture; format: cell-based
From the text: The hypothesis that SR8278 increases NK cells production would not have any potential therapeutic value if it was not also true for human NK cell production. Therefore, the effect of SR8278 on human NK cell production from human HPCs was examined. Human HPCs were obtained as the CD34^+ population purified from umbilical cord blood from collaborators at the Anthony Nolan Research Institute, London. Human NK cell development goes through a similar developmental pathway to mouse NK cell development. […]
as §1, with “These cells were isolated from whole cord blood and were cryopreserved in liquid nitrogen for storage and transport.” left out

CCOC(=O)C1Cc2ccccc2CN1C(=O)c1ccc(SC)s1 (centres unmarked) [SR8278, 1,2,3,4-Tetrahydro-2-[[5-(methylthio)-2-thienyl]carbonyl]-3-isoquinolinecarboxylic acid ethyl ester]
change of percentage of NK cells versus 'No drug' control ([1]; 5 μM added at Day 4, harvested at Day 14): almost tripled
percentage of NK cells ([1]; 5 μM added at Day 4, harvested at Day 14, 'No drug' control 5.53%): 13.7%
change of percentage of NK cells versus 'No drug' control ([1]; 5 μM added at Day 4, harvested at Day 16): doubled
percentage of NK cells ([1]; 5 μM added at Day 4, harvested at Day 16, 'No drug' control 21.8%): 44.3%
NK cell number ([1]; 5 μM added on Day 2): clear increase
human NK cell development from human HPCs cultured in vitro ([1]; summary in Discussion): significantly increase
toxicity to human CD34+ cells ([2]; 5 μM): not toxic
toxicity to human CD34+ cells ([2]; 10 μM): completely toxic
